Converted amounts (≈) assume the structure as drawn.
Tests used:
[1] = Kinetic aqueous solubility in pH 7.4 50 mM phosphate buffer; format: physicochemical; conditions: read-out: Kinetic_solubility
[2] = Protein binding in rat plasma by equilibrium dialysis; format: ADME, cell-free; conditions: read-out: PPB (converted)
Mus musculus = experiment: In-vivo inhibition of TPH1 in mouse assessed as 5-HT level in intestinal mucosa at 150 mg/kg, po administered as single dose relative to control; format: functional; design: scale not given: the % may be the effect or the level left

| solubility kinetic [1] [µM] | fraction unbound [2] | SMILES | Activity (Mus musculus) [%] |
| --- | --- | --- | --- |
| > 40 | 0.12 | COc1cccc(Oc2cccc(N3CCCCC3)c2CN/C(N)=N/C(=O)c2ccc(C[C@H](N)C(=O)O)cc2)c1 | – |
| 16 (≈ 7.99 µg/mL) | – | N/C(=N\C(=O)c1ccc(C[C@H](N)C(=O)O)cc1)NCc1cc(-c2ccccc2)ccc1N1CCCCC1 | – |
| 2.1 (≈ 1.11 µg/mL) | < 0.001 | Nc1nc(OC(c2ccc(-c3cccc(F)c3)cc2)C(F)(F)F)cc(-c2ccc(C[C@H](N)C(=O)O)cc2)n1 (stereo not given in full) | – |

Further lines, the compound ahead of its results:

| SMILES | solubility kinetic [1] [µM] | fraction unbound [2] | Activity (Mus musculus) [%] |
| --- | --- | --- | --- |
| CCOC(=O)[C@@H](N)Cc1ccc(C(=O)/N=C(\N)NCc2c(Oc3ccccc3)cccc2N2CCCCC2)cc1 | – | – | 62 |
| Cc1cccc(N2CCCCCC2)c1CN/C(N)=N/C(=O)c1ccc(C[C@H](N)C(=O)O)cc1 | 40 (≈ 18.1 µg/mL) | – | 72 |
| N/C(=N\C(=O)c1ccc(C[C@H](N)C(=O)O)cc1)NCc1c(Oc2ccccc2)cccc1N1CCCCC1 | – | – | 80 |
| CCOC(=O)[C@@H](N)Cc1ccc(C(=O)/N=C(\N)NCc2c(C)cccc2N2CCCCCC2)cc1 | – | – | 62 |

— ChEMBL document CHEMBL3797153, “Discovery of acyl guanidine tryptophan hydroxylase-1 inhibitors” (Bioorg Med Chem Lett, 2016)
